Measured values as given in patent US9193699B2, “Apoptosis inducing compounds” (INSTITUT NATIONAL DE LA SANTE ET DE LA RECHERCHE MEDICALE …, priority 2011, dated 2015).

Assays:
[1] = tested on: caspase-3 and caspase-7 in SUM149 cells; experiment: Caspase 3/7 activation (Caspase-Glo 3/7) in SUM149 tumor cells; assay type: cell-based; details: Homo sapiens, R=RLU at 20 μM/RLU at 0 μM, 24 h, read-out: Caspase 3/7 activation R (RLU fold increase from untreated cells)
Method: Human breast tumor SUM149 cells were plated in a 96 well plate at 10000 cells/100 μL at 37° C. in 5% CO2. Serial dilutions of drugs (compounds 1, 3 or 4) ranging from 20 μM to 300 nM were added at day 0. Active caspase-3 and caspase-7 were measured in triplicate after 24 h treatment by incubating 50 μL of the Caspase-Glo 3/7 reagent for 60 min at 25° C. This reagent containing the proluminescent tetrapeptide sequence DEVD in a cell lysis buffer (Promega) (FIG. 6).
Caspase 3/7 activation in SUM149 and L226 tumor cells was measured.
The calculated values R correspond to Relative Luminescence Units (RLU) fold increase from untreated cells (R=RLU at 20 μM/RLU at 0 μM).

[2] = tested on: Thirty eight validated cells lines; experiment: High throughput cell growth analysis on cell line panel; assay type: cell-based; details: panel of cell lines
Method: Thirty eight validated cells lines, including BXPC3 cells, DU145 cells, OPM2 cells, U-2-OS cells, PLCPRF5 cells, A549 cells, SUM149 cells, HepG2 cells, L389 cells, HGC27 cells, TOV-112D cells, Messa cells, Karpas 299 cells, A498 cells, HCT-116 cells, H1299 cells, Hep2 cells, DLD1 cells, HUT78 cells, AGS cells, A4573 cells, ACHN cells, Panc-1 cells, A375 cells, BT-20 cells, L226 cells, MDAMB231 cells, U118 cells, PC-3 cells, SW579 cells, CLS354-4 cells, Calu-6 cells, U87MG cells, MeWO cells, HUVEC, HME-1 cells, MCF10-A cells and fibroblasts, were plated at 3000 cells/100 μL at 37° C. in 5% CO2 in recommended medium containing 10% FCS.
Compounds 12, 4, 11, 3, 13, 6, 8, 14, 1 and 7, described in the above examples, and DMSO as a control, were tested at various concentrations and % inhibition of cell growth at 10 μM was more particularly studied.

Cancer stem cells (CSCs) = experiment: Aldefluor assay of cancer stem cells (ALDH+ cells), FACS; assay type: cell-based
Method: Cancer stem cells (CSCs) are thought to contribute to tumor initiation, maintenance, resistance to therapy, and metastasis progression. Treatment with drugs enrich in resistant CSCs. In vitro, breast CSCs express high level of aldehyde dehydrogenase-1 (ALDH1), which can be detected by using a commercial assay (CSCs are “Aldefluor” positive). Briefly, cells were incubated in Aldefluor assay buffer containing ALDH substrate (BAAA (BODIPY®—aminoacetaldehyde), 1 μmol/L per 1×10^6 cells). Negative control was done in the presence of diethylaminobenzaldehyde (DEAB), a specific ALDH inhibitor. Cells were then incubated for 40 min at 37° C. Cells were analyzed with the LSRII flow cytometer (Becton-Dickinson). PI (Propidium Iodide) exclusion was used to gate viable cells.

[3] = tested on: tumors derived from MMTC-ErbB2/neu mice; experiment: TUNEL assay of tumor apoptosis in MMTV-ErB2/Neu mice; assay type: in vivo; details: 100 mg/kg for 30 days
Method: DNA fragmentation in apoptotic cells was analyzed by the TUNEL assay (ApopTag detection kit, Millipore) as recommended by the manufacturer.
Briefly, 4 μm sections of paraffin-embedded fixed tissue from tumors derived from MMTC-ErbB2/neu mice treated with vehicle or with Compound 12, 4 or 8 (100 mg/kg) for 30 days, were deparaffined with successive histolemon and ethanol washes, then treated with 20 μg/mL proteinase K for 15 min at room temperature. Endogenous peroxidise was quenched with 3% hydrogen peroxide. […] Coloration was performed using the diaminobenzidine mixed substrate (Dako). Counterstaining was done with a solution of 1% methyl green for 5 min at room temperature. After distilled water and N-butanol washes, specimens were mounted in Pertex medium (CellPath). Observations were made using the Leica DMD108 digital microimaging device (Leica Microsystems GmbH).

[4] = tested on: Human breast tumor SUM149 cells; experiment: Annexin V/7-AAD apoptosis with or without Z-VAD-FMK; assay type: cell-based; details: 2.5 to 20 μM, 48 h, with Z-VAD-FMK pan-caspases inhibitor
Method: Human breast tumor SUM149 cells were plated in dishes at a concentration of 10^6 cells/[…] Cells were treated with compound 3 or compound 4 (2.5 to 20 μM) for 48 h, with or without Z-VAD-FMK, a pan-caspases inhibitor. Cells were double stained with annexinV-FITC and 7-AAD to measure cell apoptosis.

Cc1c(C)c(C)c(S(=O)(=O)N2CCSC(C)(C)[C@@H]2C(=O)NO)c(C)c1C [Compound 12, (3S)—N-hydroxy-4-[(2,3,4,5,6-pentamethylphenyl)sulfonyl]-2,2-dimethyl-3-thiomorpholine carboxamide]
fold induction at 20 µM [1]: 6.8
cell lines studied that were sensitive [2]: 86%
IC50 ([2]; recommended medium containing 10% FCS, read-out: IC50 of cell growth inhibition on cell line panel): < 1000 nM
pool of CSC (ALDH+ cells) after treatment (Cancer stem cells (CSCs); 0.6 μM, DMSO control 2.6%): 0.4%
aldefluor ratio (percent ALDH+ cells treated vs DMSO) (Cancer stem cells (CSCs); FIG. 12B): reduces the aldefluor ratio
percentage of cells having TdT positive nuclei in tumors [3]: 70%

Cc1cc(C)c(C)c(S(=O)(=O)N2CCSC(C)(C)[C@@H]2C(=O)NO)c1C [Compound 4, (3S)—N-hydroxy-4-[(2,3,5,6-tetramethylphenyl)sulfonyl]-2,2-dimethyl-3-thiomorpholine carboxamide]
fold induction at 20 µM [1]: 4.4
effect of Z-VAD treatment on compound induced apoptosis (Annexin V positive cells) [4]: fully impaired
percentage of cells having TdT positive nuclei in tumors [3]: 50%
